pIC50: −log10 of the molar value. Read-outs that look alike come from different tables or passages of the source.
Assays:
Monoaminoxidase A [1] = target: T1, Monoaminoxidase A (Rattus norvegicus, UniProt P21396); details: in words, known for the comparative substance; cited from earlier work
T1 sequence (P21396 1-526): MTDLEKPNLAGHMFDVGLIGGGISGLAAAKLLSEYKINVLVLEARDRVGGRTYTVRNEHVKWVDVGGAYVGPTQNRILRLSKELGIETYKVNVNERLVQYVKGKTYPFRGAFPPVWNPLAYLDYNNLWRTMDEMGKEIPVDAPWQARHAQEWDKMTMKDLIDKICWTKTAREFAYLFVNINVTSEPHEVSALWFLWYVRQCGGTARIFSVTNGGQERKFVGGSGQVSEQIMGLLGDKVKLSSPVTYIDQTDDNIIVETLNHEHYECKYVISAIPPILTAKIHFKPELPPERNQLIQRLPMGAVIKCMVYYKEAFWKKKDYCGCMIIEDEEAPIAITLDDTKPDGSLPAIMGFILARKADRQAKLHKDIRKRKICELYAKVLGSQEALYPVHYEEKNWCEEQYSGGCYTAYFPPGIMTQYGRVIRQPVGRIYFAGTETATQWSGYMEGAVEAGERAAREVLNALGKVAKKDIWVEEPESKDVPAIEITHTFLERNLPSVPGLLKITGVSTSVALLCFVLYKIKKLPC

[2] = tested on: reserpine-induced hypothermia; test: Antidepressant action: inhibition of reserpine-induced hypothermia (reserpine test); type: in vivo, mouse (male, Swiss strain); details: read-out: Antidepressant action (mouse) ED50
Method: The test substances are administered orally, 60 minutes before the reserpine.

Monoaminoxidase A [3] = target: T1, Monoaminoxidase A; test: biochemical; details: read-out: Monoaminoxidase inhibition IC50
Method: Monoaminoxidase A is determined in dilute rat brain homogenate to which
1. various concentrations of the test substances and
2. ^14 C-tryptamine in a concentration of 0.4 μmol/liter are added. This mixture is incubated at 37° C. for 20 minutes, after which the reaction is terminated by means of aqueous 0.1N HCl, and the products are extracted with toluene scintillator (PPO+POPOP in toluene) and then determined. The blank value is determined in similar mixtures for an incubation time of t=0 minutes.
The mean inhibitory concentration (IC50) is calculated from the inhibitory values determined, in comparison with the control, at the various inhibitor concentrations, by means of a linear regression after logit-log transformation.

[4] = oral administration, 60 minutes before reserpine 2.15 mg/kg s.c., mouse, temperature 2 hours after
[5] = monoaminoxidase A, rat brain homogenate, 14C-tryptamine 0.4 μmol/liter, 37° C., 20 minutes

SMILES	pIC50 (Monoaminoxidase A [3]; [5])	action mechanism (known) (Monoaminoxidase A [1])	ED50 [2, 4]	pIC50 (Monoaminoxidase A [3])	ED50 ([2]; Mus musculus, po, 2 h)
C#CCN(C)Cc1ccccc1 [Pargyline, reference compound]		inhibition of monoaminoxidase A	48 mg/kg	5.70	
Cc1cc(=O)oc2cc(OS(=O)(=O)c3ccc(Cl)cc3)ccc12 [Example 40, 7-Hydroxy-4-methylcoumarin 4'-chlorobenzenesulfonate]	8.19				8.7 mg/kg
Cc1c(C)c2ccc(OS(=O)(=O)C(F)(F)F)cc2oc1=O [Example 24, 7-Hydroxy-3,4-dimethylcoumarin trifluoromethanesulfonate]	7.12		3.7 mg/kg		

The next lines start with results.

pIC50 (Monoaminoxidase A [3]; [5])	SMILES	action mechanism (known) (Monoaminoxidase A [1])	ED50 [2, 4]	pIC50 (Monoaminoxidase A [3])	ED50 ([2]; Mus musculus, po, 2 h)
8.43	Cc1c(C)c2ccc(OS(=O)(=O)C(C)C)cc2oc1=O [Example 23, 7-Hydroxy-3,4-dimethylcoumarin isopropanesulfonate]		3.1 mg/kg		
6.89	Cc1cc(=O)oc2cc(OS(C)(=O)=O)ccc12 [Example 42, 7-Hydroxy-4-methylcoumarin methanesulfonate]		19.6 mg/kg		
8.02	CCCS(=O)(=O)Oc1ccc2c(C)c(C)c(=O)oc2c1 [Example 22, 7-Hydroxy-3,4-dimethylcoumarin propanesulfonate]		1.4 mg/kg		
8.24	Cc1c(C)c2ccc(OS(=O)(=O)CC(C)C)cc2oc1=O [Example 52, 7-Hydroxy-3,4-dimethylcoumarin 2'-methylpropanesulfonate]		0.3 mg/kg		

— patent US4618622A, “Sulfonates of hydroxycoumarins” (priority 1982, dated 1986)
